Laboratory results as given in patent publication US20190084909A1, “F[…] COMPOUNDS, COMPOSITIONS AND USES THEREOF” (YISSUM RESEARCH DEVELOPMENT COMPANY OF THE HEBREW …, priority 2015, published 2019).
“And” between values parts separate entries of the source, which are not always exact repeats. Equal values may be shown once.

How the values were obtained:
Male Swiss mice = test: Pre-pulse inhibition (PPI), impairment induced by amphetamine; format: in vivo
Protocol: (§1) Male Swiss mice (25-30 g) originated from the Central Animal Farm of the School of Medicine of Ribeirão Preto (FMRP-USP) were maintained in groups of five animals per box (41×33×17 cm) in a temperature controlled room (24±2° C.) with a 12×12 h light-dark cycle. They received water and food ad libitum throughout the study period.
Cannabidiol (CBD; THC Pharm, 15-60 mg/kg) and HU-485 (1-10 mg/kg) were administered intraperitoneally (ip). All drugs were dissolved in 2% Tween 80 in sterile saline.
The PPI test was conducted simultaneously in two identical startle response systems (Med Associates, USA). A continuous acoustic signal provided a background white noise level of 65 dB. The pulse consists of a 105 dB white noise burst with a rise/decay of 5 ms and duration of 20 ms. The pre-pulse comprised pure 7000 Hz tones, 10 ms duration, with intensities set at 80, 85, and 90 dB. The setups were daily calibrated to ensure equal sensitivity throughout the experiments. Calibration was performed by adjusting the gain on the load cell amplifier to 150 arbitrary units (AU) at a standard weight appropriated for a 40 g mice. The limits of the load cell were −2047 to +2047 AU. Thirty min after the injection of the tested compounds mice received i.p. injections of amphetamine 10 mg/kg or vehicle. […] The first 10 pulse-alone trials allow for the within-session habituation to the startle stimulus and are not considered for PPI statistical analysis. The test consisted of 64 pseudo-random trials divided into eight different groups presented with an inter-stimulus interval of 30 s, and consisting of pulse alone (105 dB), pre-pulse alone (80, 85, or 90 dB), pre-pulse+pulse with 100 ms interval between pre-pulse and pulse, and no stimulus presented. […] Mean acoustic startle response to pulse-alone (P) trials and each pre-pulse+pulse (PP+P) trial was recorded for each subject. PPI was calculated by expressing the pre-pulse+pulse startle amplitude as a percentage of decrease from pulse-alone startle amplitude, according to the following formula: % PPI=100−[100×(PP+P/P)]. This transformation reduces statistical variability attributable to differences between animals and it is a direct PPI measure. Antipsychotic drugs typically attenuate PPI impairment induced by amphetamine.
Results were analyzed by one-way ANOVA followed by Duncan test. […]
Animals received a first injection of vehicle (V) or CBD, followed 30 min later, by vehicle (n=9) or amphetamine 10 mg/kg (V+amphetamine group=9 animals). PPI was evaluated at three-stimuli intensity (90, 85 and 80 dB). […]
Animals received a first injection of vehicle (V) or HU-485, followed 30 min later, by vehicle (n=7) or amphetamine 10 mg/kg (V+amphetamine group=7 animals). PPI was evaluated at three-stimuli intensity (90, 85 and 80 dB). […]

Male Wistar rats [1] = test: Elevated plus maze (EPM), rats, microinjection into the dorsolateral periaqueductal gray; format: in vivo
Protocol: as §1, with “Male Wistar rats (220-250 g) and” for “Male”, “Ribeirio” for “Ribeirão”
(§2) HU-474 (1, 3 and 10 mg/kg) was administered intraperitoneally (IP) in mice at 10 mL/kg volume and HU-475 (1, 3 and 10 nmol) was injected intra-dIPAG in rats. Both drugs were dissolved in 2% Tween 80 in sterile saline.
Rats were submitted to a stereotaxic surgery to unilaterally implant cannulae (9.0 mm, 0.6 mm OD) into the dIPAG (coordinates: lateral: −1.9 mm; depth: −4.3 mm; angle: 16° from lambda; Paxinos and Watson, 2005), fixed to the skull with acrylic cement (Campos & Guimarães, 2008). The surgeries were performed under anesthesia with tribromoethanol 2.5% (10.0 mL/kg, IP) and immediately after the animals received Veterinary Pentabiotic (0.2 mL, intramuscular) and analgesic (Banamine, 1.0 mL/kg, subcutaneous) to prevent infections and decrease post-surgical pain. After surgery, animals underwent a recovery period of 5-7 days before the behavioral tests.
Animals received unilateral microinjections of vehicle or HU-475 into the dIPAG before being submitted to the behavioral tests. To this aim, microneedles (10.0 mm, 0.3 mm OD), connected to a microsyringe (Hamilton, USA, […]) through a segment of polyethylene (P10) were inserted into the guide cannulae. Solutions were injected with the help of an infusion pump (KD Scientific, USA). A 0.2 μL solution volume was injected over 1 min. After the injections, the needles remained inserted in the cannulae for additional 30 seconds to prevent drug reflux (Campos & Guimarães, 2008).
The wood EPM used to perform the experiments was located in a sound attenuated and temperature controlled room (23° C.), with one incandescent light (40 W) placed 1.3 m away from the maze. The apparatus consists of two opposing open arms (50×10 cm) without side walls, perpendicular to two enclosed arms (50×10×40 cm), with a central platform common to all arms (10×10 cm). The apparatus is elevated 50 cm above the ground and has an acrylic edge (1 cm) in the open arms to prevent animal falls. In this model, rodents naturally avoid the open arms, exploring more extensively the enclosed arms. […] The test lasted for 5 min and was recorded. The animal behavior was analyzed with the help of the Anymaze Software (version 4.5, Stoelting). […]
(§3) Results from HU-475 and HU-474 tests in the elevated plus maze were analyzed by Kruskal-Wallis followed by Mann-Whitney tests. Data from animals tested in the FST were analyzed by one-way ANOVA followed by Duncan test.

male C57BL/6J mice = test: Pre-pulse inhibition (PPI) test, impairment induced by MK-801; format: in vivo
Protocol: The experiments were performed using male C57BL/6J mice weighting 25-30 g. The animals were maintained throughout the experimental period under standard laboratory conditions with free access to water and food will be used.
HU-474 (3 and 10 mg/kg) was dissolved in 2% Tween 80 in sterile saline (vehicle). MK-801 (a NMDA antagonist, 0.5 mg/kg, Sigma, USA) was dissolved in saline. Drugs were administered intraperitoneally (ip) at 10 mL/kg volume.
The animals (n=9-11/group) received i.p. administration of vehicle or HU-474 (3 and 10 mg/kg) followed, 30 minutes later, by saline or MK-801 (0.5 mg/kg), resulting in the following experimental groups: vehicle+saline, HU 10+saline, vehicle+MK-801, HU 3+MK-801, HU 10+MK-801. The animals were submitted to PPI test 20 minutes after the last drug injection.
The PPI was carried out in three consecutive steps. The first consisted of an acclimation period during which no stimulus was presented. In the second step, called habituation, only the stimulus that triggers the startle (pulse) was presented. […] During this session the stimuli are presented at regular intervals of 30 s, 8 presentations of each stimulus. The percentage of the PPI was expressed as the percent inhibition of startle amplitude in response to multiple presentations of the pulse preceded by pre-pulse (PP), depending on the amplitude of the response only to the pulse (P), which was obtained in the following formula: % PPI=100−((PP/P)×100). Using this formula 0% represents no difference between the amplitude of startle triggered only by the pulse or pulse preceded by the pre-pulse and therefore no pre-pulse inhibition. This transformation was performed in order to reduce the statistical variability attributable to differences between animals and represents a direct measure of pre-pulse inhibition (Issy et al., 2009).
The percentage of PPI was analyzed by repeated measures MANOVA with the treatment as the independent factor and the prepulse intensity (80, 85 and 90 dB) as repeated measure.

Male Wistar rats [2] = settings: intra-dlPAG; doses tested 15, 30 and 60 nmol; cited from earlier work
Swiss mice [3] = settings: i.p., doses tested 3, 10, 30 and 100 mg/kg; cited from earlier work
rats = settings: Vogel punished licking test, intra-dlPAG; cited from earlier work
Swiss mice [4] = settings: cited from earlier work
Swiss mice [5] = settings: single administration i.p., MK801 0.3-1 mg/kg i.p.; 1 and 15 mg/kg also tested; cited from earlier work
Swiss mice [6] = test: Elevated plus maze (EPM), mice, HU-474 IP; format: in vivo
Protocol: as §1, with “Male Wistar rats (220-250 g) and” for “Male”, “Ribeirio” for “Ribeirão”
as §2
The wood EPM used to perform the experiments was located in a sound attenuated and temperature controlled room (23° C.), with one incandescent light (40 W) placed 1.3 m away from the maze. The apparatus consists of two opposing open arms (50×10 cm) without side walls, perpendicular to two enclosed arms (50×10×40 cm), with a central platform common to all arms (10×10 cm). The apparatus is elevated 50 cm above the ground and has an acrylic edge (1 cm) in the open arms to prevent animal falls. In this model, rodents naturally avoid the open arms, exploring more extensively the enclosed arms. Anxiolytic drugs increase the exploration in open arms without affecting the number of enclosed arms entries, which is usually used to assess general exploratory activity (File, 1992). Ten minutes after the last injection the animal was placed on the central platform of the maze with the head facing one of the enclosed arms. The test lasted for 5 min and was recorded. The animal behavior was analyzed with the help of the Anymaze Software (version 4.5, Stoelting). This software indicates the location of the animal in the EPM and automatically calculates the percentage of entries (Peo) and time spent in the open arms (Pto) and the number of entries in the enclosed arms (EA). Animals were only considered to enter an open or enclosed arm when 90% of their bodies were inside the region. All experiments were performed in the morning period (8 to 12 a.m.).
Similar to 5.1 except that the each arm measured 30×5 cm. 5.3 Forced Swimming Test (FST) Mice
as §3

Swiss mice [7] = test: Forced swimming test (FST), mice; format: in vivo
Protocol: as §1, with “Male Wistar rats (220-250 g) and” for “Male”, “Ribeirio” for “Ribeirão”
as §2
Animals were individually submitted for 6 min of forced swimming in glass cylinders (height 25 cm, diameter 17 cm) containing 10 cm of water. The mice were videotaped and the immobility time (characterized by slow movements necessary to avoid drowning) was measured during the last 4-min period. The water was changed after each trial to maintain the temperature at 23-25° C. and to prevent the influence of alarm substances (Zanelati et al., 2010).
as §3

Question: Which “effect on PPI” value (Male Swiss mice; amphetamine 10 mg/kg i.p., all intensities (90, 85, 80 dB), Duncan p<0.05) does the source give for CC(N)Cc1ccccc1 (stereo not shown) [amphetamine, reference compound] here?
Answer: Its value is “impaired PPI”.

Question: Which results are given for C=C(CF)[C@@H]1CCC(C)=CC1c1c(OC(C)=O)cc(CCCCC)cc1OC(C)=O (stereo partly shown) [HU-475, 10-fluoro-cannabidiol diacetate]?
Answer: number of enclosed arm entries (Male Wistar rats [1]; 1, 3 and 10 nmol intra-dlPAG): No effect; percentage of time spent in the open arms (Male Wistar rats [1]; 1, 3 and 10 nmol intra-dlPAG, vs vehicle, X2=8.5, p=0.075 (trend)): tended to do the same; percentage of entries onto the open arms (Male Wistar rats [1]; 1, 3 and 10 nmol intra-dlPAG, vs vehicle, X2=9.66, p<0.05): increased; potency relative to CBD (Male Wistar rats [1]; EPM, intra-dlPAG injection, comparison of effective doses): 10 times

Question: For C[C@]12N[C@H](Cc3ccccc31)c1ccccc12 [MK-801, reference compound], which “effect on PPI” value (male C57BL/6J mice; MK-801 0.5 mg/kg i.p., all prepulse intensities, P<0.05) is on record?
Answer: Its value is “significant PPI disruption”.

Question: Which “effect on PPI impairment by amphetamine” value (Male Swiss mice; CBD 30 and 60 mg/kg ip, intensities of 85 and 80 dB, amphetamine 10 mg/kg) does the source give for C=C(C)[C@@H]1CCC(C)=C[C@H]1c1c(O)cc(CCCCC)cc1O [CBD, Cannabidiol] here?
Answer: The value was “attenuated”.

Question: And the “effective dose (anxiolytic-like effect in the EPM)” value (Male Wistar rats [2])?
Answer: Its value is 30 nmol.

Question: What about the “dose producing an antidepressant-like effect in the forced swimming test” value (Swiss mice [3]) of the same compound?
Answer: The value was 30 mg/kg.

Question: What about the “dose producing an anxiolytic-like effect” value (rats) of the same compound?
Answer: Its value is 30 nmol.

Question: What about the “dose able to attenuate the hyper-locomotion induced by MK801” value (Swiss mice [4]) of the same compound?
Answer: The value was 30 mg/kg.

Question: What about the “effective doses, hyperlocomotion induced by d-amphetamine” value (Swiss mice [4]) of the same compound?
Answer: The value was 30 mg/kg and 60 mg/kg.

Question: What about the “effective dose attenuating PPI deficits caused by MK801” value (Swiss mice [5]) of the same compound?
Answer: The value was 5 mg/kg.

Question: What does the source list for C=C(C)[C@@H]1CCC(C)=CC1c1c(O)cc(CCCCC)c(F)c1O (stereo partly shown) [HU-474, 4′-fluoro-cannabidiol]?
Answer: number of enclosed arms entries (Swiss mice [6]; 1, 3 and 10 mg/kg IP): No effect; percentage of entries onto the open arms (Swiss mice [6]; 1, 3 and 10 mg/kg IP): No effect; percentage of time spent in the open arms (Swiss mice [6]; 1, 3 and 10 mg/kg IP, vs vehicle, X2=8.13, p<0.05): increased; effective dose (anxiolytic-like effect in the EPM) (Swiss mice [6]; systemic administration, bell-shaped dose-response curve): 3 mg/kg; immobility time in the FST (Swiss mice [7]; dose of 3 mg/kg IP (printed 3 m/kg), p=0.019): decreased; immobility time in the FST (Swiss mice [7]; doses of 1 and 10 mg/kg IP): ineffective; potency relative to CBD (Swiss mice [7]; forced swimming test, comparison of effective doses): 10 times; effect on MK-801 PPI disruption (male C57BL/6J mice; 10 mg/kg i.p., MK-801 0.5 mg/kg, all prepulse intensities (80, 85, 90 dB), P<0.05): attenuated; effective dose against MK-801 PPI disruption (male C57BL/6J mice; i.p., 3 and 10 mg/kg tested): 10 mg/kg
